# Measurements: patent US6274622A, “Method of treating diabetic ophthalmopathy” (priority 1999, dated 2001)
# Key:
# humans = assay: administration to humans, tolerability; design: species or system human; conditions: in vivo
# in vivo [1] = conditions: mouse, iv
# in vivo [2] = conditions: dog, iv
# [3] = accepted value; cited from earlier work
# diabetic retinopathy = conditions: humans, mainly in the 1980s; cited from earlier work
smiles,measurement,setting,value
O=S(=O)([O-])CCSSCCS(=O)(=O)[O-].[Na+].[Na+],dose administered with no adverse effects,humans,exceeding 15 g/m^2
same,NOAEL,in vivo [1],> 3750 mg/kg
same,NOAEL,in vivo [2],> 3750 mg/kg
[Cl-].[Na+] [common table salt],oral LD50,[3],3750 mg/kg
O=C1NC(=O)[C@@]2(CCOc3ccc(F)cc32)N1 [sorbinil],efficacy in slowing progress of diabetic retinopathy and other diabetic complications,diabetic retinopathy,some efficacy
same,toxicity / tolerability in patients,diabetic retinopathy,highly toxic
